These are literature values, as cited in patent publication US8183280B2, “FAP inhibitors” (Vantia Limited, priority 2005, dated 2012).

The data set relates to syngeneic tumours. The conditions noted are these: mice, oral administration; Cancer Res., 2004, 64: 5471.

Take `CC(C)[C@H](N)C(=O)N1CCC[C@H]1B(O)O` [ValboroPro]: the anti-tumour activity entry was “potent anti-tumour activity in mice”.
